Experimental data taken from patent US20190201430A1, “TREATING OCULAR NEOVASCULARIZATION” (Massachusetts Eye and Ear Infirmary, priority 2014, published 2019).
Where a name gives a salt, the structure may show the parent alone.

How the values were obtained:
endothelial cells = conditions: in the absence of VEGF; cited from earlier work
caveolin-1 [1] = experiment: Western blotting of H2O2 induced caveolin-1 phosphorylation in HUVEC; format: cell-based, human; conditions: for effect of inhibitor pretreatment on the inhibitory effect of AICAR on H2O2 induced caveolin-1 phosphorylation: DPY 8 μM or IODO 0.4 μM 1 h, AICAR 2 mM 2 h, H2O2 2 mM 30 min, FIG. 2
Procedure: (§1) HUVECs (Lonza, Walkersville, Md.) were cultured in Endothelial Growth Medium (EGM, Lonza, Walkersville, Md.). For all experiments, cells were grown at 37° C. in a humidified atmosphere of 5% CO2 and 95% air. Experiments were performed on cells below passage 3 to 6 grown to 80-90% confluence.
(§2) Protein extraction and western blotting were carried out as described previously (Morizane et al. JBC). Densitometric analysis of bands was performed using ImageJ software. Lane-loading differences were normalized by β-actin.
(§3) Cells were transfected with siRNAs using Nucleofection kit (Amaxa Biosysteins, Gaithersburg, Md.), following the manufacturer's protocol. The medium was changed at 6 h after transfection. The down-regulation of each protein was evaluated at 3 days after nucleofection.

caveolin-1 [2] = experiment: Western blotting of VEGF induced caveolin-1 phosphorylation in HUVECs; format: cell-based, human
Procedure: (§4) Human umbilical vein endothelial cells (HUVECs) were cultured in endothelial growth medium (EGM, Lonza, Walkersville, Md.). Normal human dermal fibroblasts (NHDFs) were cultured in fibroblast basal medium (ATCC, Rockville, Md.). Cells were grown at 37° C. in a humidified atmosphere of 95% air, 5% CO2. Experiments were performed on cells below passage 3 to 6 grown to 80%-90% confluence.
(§5) Protein extraction and Western blotting were carried out as described previously (Morizane et al. JBC (26)). We conducted a densitometric analysis of bands using ImageJ software. Lane-loading differences were normalized by β-actin.
(§6) Cells were transfected with siRNAs using a Nucleofection kit (Amaxa Biosystems, Gaithersburg, Md.), following the manufacturer's protocol. The medium was changed 6 h after transfection. The down-regulation of each protein was evaluated 3 days after nucleofection.

AMPK [3] = experiment: Western blotting of AMPK phosphorylation in HUVECs (Example 2); format: cell-based, human
Procedure: as §4, §5

AMPK [4] = experiment: Western blotting of AMPK phosphorylation in HUVEC (Example 1); format: cell-based, human; conditions: DPY or IODO 1 h, then AICAR 2 mM 2 h, FIG. 2B,F
Procedure: as §1, §2

c-Abl [5] = experiment: Western blotting of H2O2 induced c-Abl phosphorylation in HUVEC; format: cell-based, human; conditions: DPY 8 μM or IODO 0.4 μM 1 h, AICAR 2 mM 2 h, H2O2 2 mM 30 min; FIG. 2
Procedure: as §1, §2, §3

prdx1/c-Abl complex [6] = experiment: Co-immunoprecipitation of prdx1 and c-Abl under VEGF; format: cell-based, human; conditions: AK inhibitor IODO; FIG. 15D,E
Procedure: Immunoprecipitation was performed with the Universal Magnetic Co-IP Kit (Active Motif North America, Carlsbad, Calif.) according to the manufacturer's instruction.
as §6

Akt = experiment: Western blotting of Akt phosphorylation in HUVECs (VEGF); format: cell-based, human
Procedure: as §4, §5, §6

c-Abl [7] = experiment: Western blotting of VEGF induced c-Abl phosphorylation in HUVECs; format: cell-based, human; conditions: IODO 0.4 μM 1 h, AICAR 2 mM 2 h, VEGF 12.5 ng/mL 10 min; FIG. 12D,E
Procedure: as §4, §5, §6

prdx1/c-Abl complex [8] = experiment: Co-immunoprecipitation of prdx1 and c-Abl under H2O2; format: cell-based, human; conditions: IODO before AICAR and H2O2; FIG. 6D
Procedure: Immunoprecipitation was performed with the Universal Magnetic Co-IP Kit (Active Motif North America, Carlsbad, Calif.), according to the manufacturer's instruction.
as §3

PTEN = experiment: Western blotting of PTEN phosphorylation in HUVECs; format: cell-based, human; conditions: IODO 0.1 μM 60 min, then AICAR 2 mM; FIG. 9A,D
Procedure: as §4, §5

[9] = IODO 0.4 μM 1 h, AICAR 2 mM 2 h, VEGF 12.5 ng/mL 10 min, FIG. 12D,E

SMILES: N#Cc1c(O)c2c(-c3ccc(-c4ccccc4O)cc3)csc2[nH]c1=O [A769662, 4-hydroxy-3-[4-(2-hydroxyphenyl)phenyl]-6-oxo-7H-thieno[2,3-b]pyridine-5-carbonitrile]
- endothelial proliferation (endothelial cells): suppressed endothelial proliferation

SMILES: Cc1ccc(NC(=O)c2ccc(CN3CCN(C)CC3)cc2)cc1Nc1nccc(-c2cccnc2)n1 [imatinib mesylate, Imatinib mesylate]
- H2O2 induced phosphorylation of caveolin-1 (caveolin-1 [1]; HUVEC, imatinib mesylate 10 or 20 uM for 24, 48 or 72 h, then H2O2 2 mM 30 min, FIG. 5A,B): inhibited H2O2 induced phosphorylation of both caveolin-1 and c-Abl dose- and time-dependently
- VEGF-induced phosphorylation of caveolin-1 (caveolin-1 [2]; imatinib mesylate 10 or 20 μM for 24, 48 or 72 h, then VEGF 12.5 ng/mL 10 min, FIG. 14A,C): inhibited the VEGF-induced phosphorylation of caveolin-1 and c-Abl in a time and dose dependent manner

SMILES: OCCN(CCO)c1nc(N2CCCCC2)c2nc(N(CCO)CCO)nc(N3CCCCC3)c2n1 [DPY, dipyridamole]
- AICAR induced AMPK phosphorylation after DPY pretreatment (AMPK [3]; each concentration of DPY 1 h, then AICAR 2 mM 2 h, FIG. 12B): inhibited AMPK phosphorylation
- effect of inhibitor pretreatment on the inhibitory effect of AICAR on H2O2 induced caveolin-1 phosphorylation (caveolin-1 [1]): significantly restored
- AICAR induced AMPK phosphorylation after inhibitor pretreatment (AMPK [4]): inhibited AICAR induced AMPK phosphorylation dose-dependently
- effect of inhibitor pretreatment on the inhibitory effect of AICAR on H2O2 induced c-Abl phosphorylation (c-Abl [5]): significantly restored

SMILES: Nc1ncnc2c1c(I)cn2[C@@H]1O[C@H](CO)[C@@H](O)[C@H]1O [IODO, 5-Iodotubericidin]
- effect of IODO pretreatment on AICAR induced AMPK phosphorylation (AMPK [3]; IODO 0.1 μM 60 min, then AICAR 2 mM, FIG. 9A,B): suppressed and delayed
- effect of IODO on AICAR inhibition of VEGF induced prdx1/c-Abl dissociation (prdx1/c-Abl complex [6]): abrogated
- effect of inhibitor pretreatment on the inhibitory effect of AICAR on H2O2 induced caveolin-1 phosphorylation (caveolin-1 [1]): significantly restored
- effect of IODO pretreatment on AICAR induced Akt dephosphorylation (Akt; IODO 0.1 μM 60 min, then AICAR 2 mM, FIG. 9A,C): suppressed and delayed
- effect of IODO on the inhibitory effect of AICAR on VEGF induced Akt phosphorylation (Akt; [9]): significantly abolished
- effect of IODO on the inhibitory effect of AICAR on VEGF induced c-Abl phosphorylation (c-Abl [7]): significantly abolished
- AICAR induced AMPK phosphorylation after inhibitor pretreatment (AMPK [4]): inhibited AICAR induced AMPK phosphorylation dose-dependently
- prdx1/c-Abl dissociation with IODO prior to H2O2 and AICAR (prdx1/c-Abl complex [8]): restored the dissociation
- effect of inhibitor pretreatment on the inhibitory effect of AICAR on H2O2 induced c-Abl phosphorylation (c-Abl [5]): significantly restored
- effect of IODO on the inhibitory effect of AICAR on VEGF induced caveolin-1 phosphorylation (caveolin-1 [2]; [9]): significantly abolished
- effect of IODO pretreatment on AICAR induced PTEN phosphorylation (PTEN): suppressed and delayed
